Holding throughout (type): cell-based
For test [1], the target named is T1, PSEN1 S169A–APH1A γ-secretase complex (Homo sapiens, UniProt P49768, S169A).
T1 construct: expressed in transfected cells; host or cells: Psen1/2 double KO/Aph1ABC triple KO MEFs, pools without clonal selection
In words: Aβ40 secretion, MEF cell pool restored with PSEN1 S169A–APH1A. The note with it: PSEN1 S169A (TM3)–APH1A cell pool; N = 3 to 4; mean (95% CI); decimal comma. As to the method: (§1) We turned to experimental site–directed mutagenesis and selected a series of amino acids (Fig. 3) in the entrance channel for mutation to alanine. […] More importantly, they were all enzymatically active as shown by the secretion of Aβ40 in the supernatants of the cell cultures (Fig. 3B).
Conditional Psen1/2 double KO mice were crossed with conditional Aph1ABC triple KO mice ([29], [52], [58], [59]). At embryonic day 7.5, embryos were dissected and dissociated, and cells were plated in the presence of Dulbecco’s modified Eagle’s medium (DMEM)/F12 50% fetal calf serum (FCS) (Invitrogen). Primary MEFs were immortalized by transduction with LargeT antigen. Psen1/2 double KO/Aph1ABC triple KO MEFs were generated by transduction with a Cre-GFP–expressing adenoviral vector, and GFP-positive MEFs were sorted by fluorescence-activated cell sorting analysis. Psen1/2 Aph1ABC-deficient MEFs were maintained in DMEM/f12 10% FCS. […]
(§2) The number of plated cells and incubation times were determined in respect to linearity of Aβ peptide secretion, the dynamic range of Aβ peptide quantification in the medium, and sensitivity to dimethylsulfoxide (DMSO). […] The cell viability was assessed using the CellTiter-Glo Luminescent assay (Promega) that measures ATP production. […] We however measured five compounds at the Leuven site and noticed that absolute IC50 values were different (Fig. S2). […]

Test [2] addresses T2, PSEN1 I387A–APH1A γ-secretase complex (Homo sapiens, UniProt P49768, I387A).
T2 construct: expressed in transfected cells; host or cells: Psen1/2 double KO/Aph1ABC triple KO MEFs, pools without clonal selection
In words: Aβ40 secretion, MEF cell pool restored with PSEN1 I387A–APH1A. Particulars: decimal comma; for IC50: PSEN1 I387A (TM7)–APH1A cell pool, N = 3 to 4, mean (95% CI). As to the method:
as §1
(§3) Conditional Psen1/2 double KO mice were crossed with conditional Aph1ABC triple KO mice ([29], [52], [58], [59]). At embryonic day 7.5, embryos were dissected and dissociated, and cells were plated in the presence of Dulbecco’s modified Eagle’s medium (DMEM)/F12 50% fetal calf serum (FCS) (Invitrogen). Primary MEFs were immortalized by transduction with LargeT antigen. Psen1/2 double KO/Aph1ABC triple KO MEFs were generated by transduction with a Cre-GFP–expressing adenoviral vector, and GFP-positive MEFs were sorted by fluorescence-activated cell sorting analysis. Psen1/2 Aph1ABC-deficient MEFs were maintained in DMEM/f12 10% FCS. To rescue γ-secretase expression, Psen1/2 double KO/Aph1ABC triple KO MEFs were transduced using Murine Stem Cell Virus retroviral vector system (pMSCV) viral vectors (Clontech) containing the human coding sequences of the different PSEN and APH1 homologs and the zeocin selection marker. An Internal Ribosome Entry Site sequence was cloned between the coding sequences for PSEN and APH1 to ensure co-expression of both proteins. Stable transfected cell lines were selected using 500-μg/ml zeocin (Invitrogen). Four different combinations were made: PSEN1 and APH1AL, PSEN1 and APH1B, PSEN2 and APH1AL, and PSEN2 and APH1B. These cell lines were transduced with pMSCV viral vectors (Clontech) expressing APP-C99-GFP-puromycin. […]
as §2

In test [3] the target is T3, PSEN1 WT–APH1A γ-secretase complex (Homo sapiens, UniProt P49768).
T3 construct: expressed in transfected cells; host or cells: Psen1/2 double KO/Aph1ABC triple KO MEFs
In words: Aβ40 secretion, MEF cell pool restored with PSEN1 WT–APH1A. The note with it: decimal comma; for IC50 fold change to WT: PSEN1 WT–APH1A cell pool (reference); for IC50: PSEN1 WT–APH1A cell pool, N = 3 to 4, mean (95% CI). As to the method:
as §1
(§4) Conditional Psen1/2 double KO mice were crossed with conditional Aph1ABC triple KO mice ([29], [52], [58], [59]). At embryonic day 7.5, embryos were dissected and dissociated, and cells were plated in the presence of Dulbecco’s modified Eagle’s medium (DMEM)/F12 50% fetal calf serum (FCS) (Invitrogen). Primary MEFs were immortalized by transduction with LargeT antigen. Psen1/2 double KO/Aph1ABC triple KO MEFs were generated by transduction with a Cre-GFP–expressing adenoviral vector, and GFP-positive MEFs were sorted by fluorescence-activated cell sorting analysis. Psen1/2 Aph1ABC-deficient MEFs were maintained in DMEM/f12 10% FCS. To rescue γ-secretase expression, Psen1/2 double KO/Aph1ABC triple KO MEFs were transduced using Murine Stem Cell Virus retroviral vector system (pMSCV) viral vectors (Clontech) containing the human coding sequences of the different PSEN and APH1 homologs and the zeocin selection marker. An Internal Ribosome Entry Site sequence was cloned between the coding sequences for PSEN and APH1 to ensure co-expression of both proteins. Stable transfected cell lines were selected using 500-μg/ml zeocin (Invitrogen). Four different combinations were made: PSEN1 and APH1AL, PSEN1 and APH1B, PSEN2 and APH1AL, and PSEN2 and APH1B. These cell lines were transduced with pMSCV viral vectors (Clontech) expressing APP-C99-GFP-puromycin. After puromycin selection (5 μg/ml), GFP-positive cells were selected through FACS sorting. For the alanine mutagenesis experiment, pMSCV PSEN1-APH1A viral vectors were generated by using a long PCR-based QuikChange strategy (Stratagene). Stable cell lines without clonal selection were generated for each mutant as described above. All cell lines were regularly tested for the absence of mycoplasma and used for maximum 20 passages in culture.
The number of plated cells and incubation times were determined in respect to linearity of Aβ peptide secretion, the dynamic range of Aβ peptide quantification in the medium, and sensitivity to dimethylsulfoxide (DMSO). […] MEF cells were plated in DMEM F12 supplemented with 10% FCS at 10,000 cells per well in 96-well clear bottom plates in the late afternoon and cultured for 16 h at 37 °C, 5% CO2. In the morning of the second day, the medium was replaced with 60 μl of DMEM/F12 supplemented with 2% FCS, and GSI or DMSO (controls) were added. Compounds were tested in serial dilutions with concentrations ranging from […] to 0.1 nM with 3-fold changes. The final concentration of DMSO in all wells was 0.2%. Plates were put in the incubator again at 37 °C, 5% CO2. After 8 h, the culture media were collected, and 30 μl was used to measure Aβ40 peptides. The cell viability was assessed using the CellTiter-Glo Luminescent assay (Promega) that measures ATP production. All screens were performed at one site, and reported IC50 values throughout the manuscript are from this site (Beerse) unless otherwise indicated. We however measured five compounds at the Leuven site and noticed that absolute IC50 values were different (Fig. S2). The main goal of the current work is to explore the basis for inhibitor selectivity for different γ-secretases, and selectivity was consistent in the assays at the two sites (Fig. S2).
Standard 96-well SECTOR plates (MSD) were coated with 1.5 μg/ml anti-Aβ JRFcAβ40/28 capture antibody in a final volume of 50 μl of PBS 0.05% Tween 20. After overnight incubation at 4 °C, the plates were five times rinsed with PBS 0.05% Tween 20 and blocked with 150 μl per well of casein buffer (PBS with 1% casein, pH 7.4) for 4 h at room temperature. Standards (synthetic human Aβ 1–40) were diluted in culture media. […]

Test [4] addresses T4, PSEN1 L150A–APH1A γ-secretase complex (Homo sapiens, UniProt P49768, L150A).
T4 construct: expressed in transfected cells; host or cells: Psen1/2 double KO/Aph1ABC triple KO MEFs, pools without clonal selection
In words: Aβ40 secretion, MEF cell pool restored with PSEN1 L150A–APH1A. Particulars: decimal comma; for IC50: PSEN1 L150A (TM2)–APH1A cell pool, N = 3 to 4, mean (95% CI). As to the method:
as §1, §3, §2

In test [5] the target is T5, PSEN1 F388A–APH1A γ-secretase complex (Homo sapiens, UniProt P49768, F388A).
T5 construct: expressed in transfected cells; host or cells: Psen1/2 double KO/Aph1ABC triple KO MEFs, pools without clonal selection
The experiment in a line: Aβ40 secretion, MEF cell pool restored with PSEN1 F388A–APH1A. The note with it: decimal comma; for IC50: PSEN1 F388A (TM7)–APH1A cell pool, N = 3 to 4, mean (95% CI). As to the method:
as §1, §3, §2

Test [6] has as its target T6, PSEN1 L173A–APH1A γ-secretase complex (Homo sapiens, UniProt P49768, L173A).
T6 construct: expressed in transfected cells; host or cells: Psen1/2 double KO/Aph1ABC triple KO MEFs, pools without clonal selection
The experiment in a line: Aβ40 secretion, MEF cell pool restored with PSEN1 L173A–APH1A. Particulars: decimal comma; for IC50: PSEN1 L173A (TM3)–APH1A cell pool, N = 3 to 4, mean (95% CI). Here is the method: as §1, §3, §2

Test [7] deals with T7, PSEN1 M233A–APH1A γ-secretase complex (Homo sapiens, UniProt P49768, M233A).
T7 construct: expressed in transfected cells; host or cells: Psen1/2 double KO/Aph1ABC triple KO MEFs, pools without clonal selection
In words: Aβ40 secretion, MEF cell pool restored with PSEN1 M233A–APH1A. The note with it: decimal comma; for IC50: PSEN1 M233A (TM5)–APH1A cell pool, N = 3 to 4, mean (95% CI). Here is the method:
as §1, §3, §2

For test [8], the target named is T8, PSEN1 S170A–APH1A γ-secretase complex (Homo sapiens, UniProt P49768, S170A).
T8 construct: expressed in transfected cells; host or cells: Psen1/2 double KO/Aph1ABC triple KO MEFs, pools without clonal selection
The experiment in a line: Aβ40 secretion, MEF cell pool restored with PSEN1 S170A–APH1A. Particulars: decimal comma; for IC50: PSEN1 S170A (TM3)–APH1A cell pool, N = 3 to 4, mean (95% CI). As to the method: as §1, §3, §2

Test [9] has as its target T9, PSEN1 M146A–APH1A γ-secretase complex (Homo sapiens, UniProt P49768, M146A).
T9 construct: expressed in transfected cells; host or cells: Psen1/2 double KO/Aph1ABC triple KO MEFs, pools without clonal selection
The experiment in a line: Aβ40 secretion, MEF cell pool restored with PSEN1 M146A–APH1A. Particulars: decimal comma; for IC50: PSEN1 M146A (TM2)–APH1A cell pool, N = 3 to 4, mean (95% CI); for IC50 fold change to WT: PSEN1 M146A–APH1A cell pool. As to the method: as §1, §4
as §2, with “(DMSO). […] MEF cells were plated in DMEM F12 supplemented with 10% FCS at 10,000 cells per well in 96-well clear bottom plates in the late afternoon and cultured for 16 h at 37 °C, 5% CO2.” for “(DMSO).”

“And” between values parts separate entries of the source, which are not always exact repeats. Identical values can stand only once.

Usually IC50 stands for the midpoint of a concentration-inhibition curve. With `O=S(=O)(c1ccc(Cl)cc1)N1[C@H]2CC[C@@H]([C@H]1c1ccc(C(F)(F)F)cc1)[C@@H](O)C2` [(+)-9b], the IC50 in [1] is 0.0078 µM; in test [2], 0.283 µM; in [3] it was 0.029 µM; in test [4] it was 1.09 µM; in test [5], 0.403 µM; in [6], 0.077 µM. Besides, the IC50 in test [7] was determined as 0.462 µM; in test [8], 0.132 µM; in test [9], 0.031 µM. The “IC50 fold change to WT” value is 1 fold in test [3], 2,658 fold in test [6] (PSEN1 L173A–APH1A cell pool) and 1,076 fold in test [9].

Take `C[C@H](NC(=O)Cc1cc(F)cc(F)c1)C(=O)N[C@H](C(=O)OC(C)(C)C)c1ccccc1` [DAPT]: the IC50 in test [1] was 0.026 µM; in test [2] it was 0.882 µM; in test [3], 0.169 µM; in test [4] it was 0.879 µM; in test [5] it was 0.277 µM; in [6], 0.028 µM. The IC50 in test [7] stood at 0.449 µM; in test [8], 0.139 µM; in test [9] it was 0.234 µM. Moreover, the “IC50 fold change to WT” value in test [2] (PSEN1 I387A–APH1A cell pool) is 5,225 fold and > 3 fold; in test [3], 1 fold; in test [4] (PSEN1 L150A–APH1A cell pool), 5,207 fold and > 3 fold; in [5] (PSEN1 F388A–APH1A cell pool), 1,642 fold; in test [7] (PSEN1 M233A–APH1A cell pool), 2,658 fold; in test [8] (PSEN1 S170A–APH1A cell pool), 0,821 fold. Moreover, in test [9], the “IC50 fold change to WT” value was 1,386 fold.

(Values after paper PMC10318456, “Selective inhibitors of the PSEN1–gamma-secretase complex” (The Journal of Biological Chemistry, 2023).)
